Measurements taken from patent US20170368055A1, “METHODS FOR TREATING INFECTIONS” (Melinta Therapeutics, Inc., priority 2014, published 2017).
Where a name gives a salt, the structure may show the parent alone.

Tests used:
[1] = Clinical trial of oral and intravenous-then-oral delafloxacin regimens: adverse event reporting, incidence of diarrhea; assay type: in vivo, human; details: for Abdominal Pain, subjects reporting, number (%) / Diarrhea, subjects reporting, number (%) / Gastrointestinal disorders, subjects reporting, number (%) / Nausea, subjects reporting, number (%): n = 20, safety population; for Percentage of subjects who reported diarrhea: oral capsules
[2] = Phase 1 single-dose crossover study: treatment-emergent adverse events; assay type: in vivo, human
Experimental: The pharmacokinetics and relative bioavailabilities of a 300 mg delafloxacin intravenous dosage form according to Example 1 and a 450 mg dose of oral delafloxacin according to Example 4 were measured in a Phase 1, single-dose, open-label, randomized, 2-period, 2-sequence crossover study. 56 healthy subjects received a single 450-mg dose of oral delafloxacin and a single 300-mg delafloxacin IV infusion in 1 of 2 treatment sequences. Plasma samples were analyzed for delafloxacin concentrations with a validated LC-MS/MS method. Pharmacokinetic parameters were calculated using noncompartmental methods.
16 treatment-emergent AEs (TEAE) were reported, the most frequent of which were headache (5.4%), followed by diarrhea (3.6%). 2 TEAEs were considered moderate in severity, but the remainders were considered mild, and none led to study discontinuation.

[3] = Regimen C: 300 mg IV then 400 mg oral capsules
[4] = Regimens A/B: 400-mg oral capsules (4 × 100-mg)
[5] = 56 healthy subjects, single 450-mg oral dose and single 300-mg IV infusion

## CNC[C@H](O)[C@@H](O)[C@H](O)[C@H](O)CO.Nc1nc(-n2cc(C(=O)O)c(=O)c3cc(F)c(N4CC(O)C4)c(Cl)c32)c(F)cc1F [Meglumine Salt, D-glucitol, 1-deoxy-1-(methylamino)-, 1-(6-amino-3,5-difluoro-2-pyridinyl)-8-chloro-6-fluoro-1,4-dihydro-7-(3-hydroxy-1-azetidinyl)-4-oxo-3-quinolinecarboxylate]
[1]; [3]
  Abdominal Pain, subjects reporting, number (%): 0
  Diarrhea, subjects reporting, number (%): 0
  Gastrointestinal disorders, subjects reporting, number (%): 0
  Nausea, subjects reporting, number (%): 0
[1]; [4]
  Abdominal Pain, subjects reporting, number (%): 0
  Diarrhea, subjects reporting, number (%): 3 (15.0%)
  Gastrointestinal disorders, subjects reporting, number (%): 5 (25.0%)
  Nausea, subjects reporting, number (%): 0
[1]; group with intravenous administration followed by oral treatment
  Side effects reported: No side effect
[1]; intravenous formulation (300 mg, 3 days) followed by oral formulation (400 mg BID, 4 days)
  Tolerability: well tolerated
[1]; intravenous formulation followed by oral formulation
  Side effects as compared to all-oral formulations: reduced side effects
[1]
  Percentage of subjects who reported diarrhea: 15.0%

## Nc1nc(-n2cc(C(=O)O)c(=O)c3cc(F)c(N4CC(O)C4)c(Cl)c32)c(F)cc1F [Potassium Salt]
[1]; [4]
  Abdominal Pain, subjects reporting, number (%): 2 (10.0%)
  Diarrhea, subjects reporting, number (%): 3 (15.0%)
  Gastrointestinal disorders, subjects reporting, number (%): 3 (15.0%)
  Nausea, subjects reporting, number (%): 1 (5.0%)
[1]
  Percentage of subjects who reported diarrhea: 15.0%

## Nc1nc(-n2cc(C(=O)O)c(=O)c3cc(F)c(N4CC(O)C4)c(Cl)c32)c(F)cc1F [delafloxacin, 1-(6-amino-3,5-difluoro-2-pyridinyl)-8-chloro-6-fluoro-1,4-dihydro-7-(3-hydroxy-1-azetidinyl)-4-oxo-3-quinolinecarboxylic acid]
[2]; [5]
  Diarrhea TEAE frequency: 3.6%
  Headache TEAE frequency: 5.4%
  Number of treatment-emergent AEs (TEAE) reported: 16
[2]; in vivo
  TEAEs that led to study discontinuation: none
[2]; remainders considered mild
  Number of TEAEs considered moderate in severity: 2
